Values quoted from earlier work, collected in US20200030399A1, “HERBAL COMPOSITIONS OF CALIFORNIA POPPY AND METHOD FOR THE TREATMENT OF SLEEP AND DREAM-RELATED DISORDERS” (MONDIAS NATURELS INC., priority 2017, published 2020).

Assays:
[1] = tested on: dexamphetamine produced mortality; conditions: mice
[2] = tested on: stereotyped behaviour effects of dexamphetamine; conditions: mice
[3] = tested on: myorelaxant effects; conditions: mice
[4] = tested on: pentetylenetetrazole; conditions: mice
[5] = tested on: anticholinergic effects of Oxotremorine; conditions: mice
[6] = tested on: acetic acid writhing; conditions: mice; doses not given; dose-response for the extract
[7] = tested on: reserpine-induced ptosis, akinesia or hypothermia; conditions: mice

Structure (SMILES): CN(C)CCCN1c2ccccc2Sc2ccc(Cl)cc21 [Chlorpromazine]
- protective effect against dexamphetamine produced mortality [1]: a protective effect was observed
- stereotyped behaviour effects of dexamphetamine [2]: significantly decreased

Structure (SMILES): O=C(O)C1N=C(c2ccccc2)c2cc(Cl)ccc2NC1=O (centres unmarked) [Clorazepate, Clorazepate dipotassium]
- myorelaxant effects [3]: Dose-dependent anticonvulsant and myorelaxant effects
- anticonvulsant effects [4]: Dose-dependent anticonvulsant and myorelaxant effects

Structure (SMILES): CN(C)CCCN1c2ccccc2CCc2ccccc21 [Imipramine]
- effect against the anticholinergic effects of Oxotremorine [5]: significantly reduced

Structure (SMILES): CC(=O)Oc1ccccc1C(=O)O [acetylsalicylic acid]
- Protection against writing (acetic acid writhing) [6]: 60%

Structure (SMILES): CN(C)CCC=C1c2ccccc2CCc2ccccc21 [amitryptiline]
- effect against reserpine-induced ptosis, akinesia or hypothermia [7]: significantly reduced ptosis and hypothermia

Structure (SMILES): CC(=O)Nc1ccc(O)cc1 [paracetamol]
- Protection against writing (acetic acid writhing) [6]: 60%
